Experimental data: patent US8703815B2, “Small molecules that covalently modify transthyretin” (The Scripps Research Institute, priority 2009, dated 2014)

Columns and labels:
[1] = target: T1, TTR in human blood plasma (Homo sapiens, UniProt P02766); assay: Modification of TTR in human blood plasma (immunocapture, RP-HPLC); format: binding; details: compound 10.8 μM, 24 hours, 37° C.; maximum 50%
T1 construct: RP-HPLC analysis of TTR captured from human plasma; from tissue; host or cells: human blood plasma
Protocol: Compounds 1-4 (10.8 μM) were incubated for 24 hours at 37° C. with human plasma, wherein the TTR concentration is 3.6-5.4 μM.
Furthermore, compound A2 was evaluated to determine its ability to bind selectively to and then react chemoselectively with TTR over the 4000+ other proteins in human blood plasma. Compound A2 (10.8 μM) was incubated with human blood plasma (TTR concentration is 3.6-5.4 μM) for 24 hours at 37° C. before immunoisolating human TTR using a Sepharose® resin-conjugated anti-TTR polyclonal antibody [Purkey et al., Proc. Natl. Acad. Sci. U.S.A. 2001, 98, 5566-5571].
The modification ratio of TTR by kinetic stabilizers in human plasma was evaluated as described [Purkey et al., Proc. Natl. Acad. Sci. U.S.A. 98:5566-5571 (2001)] with minor modifications. Briefly, compounds (7.5 μL of 1.44 mM solution in DMSO) were added to 1 mL of human plasma and incubated at 37° C. for 24 hours on a rocker (30 rpm). A 1:1 (v/v) slurry of unfunctionalized Sepharose® resin in 10 mM Tris, 140 mM NaCl, pH 8.0 (TSA) was added and the solutions were incubated for 1 hour at 4° C. on a rocker plate, followed by brief centrifugation.
Two 400 μL aliquots of the supernatants were added to 300 μL of 1:1 (v:v) slurry of anti-TTR antibody-conjugated Sepharose® resin in TSA. The solutions were gently rocked at 4° C. for 20 minutes (30 rpm), centrifuged, and supernatants were removed. The resin was washed by shaking for 1 minute in 1 mL of TSA solution containing 0.05% saponin (three times) and then 1 mL of TSA solution (twice). The TTR and bound test compound were dissociated from the resin by adding 155 μL of triethylamine (100 mM, pH 11.5) and vortexing for 1 minute. After centrifugation, 135 μL of solution containing test compound and TTR was analyzed by RP-HPLC as described above except that the linear gradients were run from 100:0 to 0:100 A:B for 45 minutes.

[2] = tested on: WT-TTR cytotoxicity in human IMR-32 neuroblastoma cells; assay: Inhibition of WT-TTR cytotoxicity in IMR-32 cells (resazurin reduction); format: cell-based; details: WT-TTR 8 μM, compounds 2, 4, 6 and 8 μM, 24 hours
Protocol: Cell viability was measured after 24 hours by a resazurin reduction assay.
The human neuroblastoma IMR-32 cell line (CCL-127 ATCC) was maintained in Opti-MEM® medium (Invitrogen), supplemented with 5% FBS, 1 mM Hepes buffer, 2 mM L-glutamine, 100 units/mL penicillin, 100 μg/mL streptomycin and 0.05 mg/mL CaCl2 (complete cell medium). Cells were seeded in black wall, clear bottom, tissue culture treated 96-well plates (Costar) at a density of 6,000 cells/well in complete cell medium and incubated overnight (about 18 hours) at 37° C.
Recombinant WT-TTR purified in the cold was used as the cytotoxic insult. The protein was buffer-exchanged in Hanks' Balanced Salt Solution (HBSS, Mediatech, Manassas, Va.) at 10° C. using a Centriprep® filter device (10 kDa MWCO, Millipore). Compounds (16 mM in DMSO) were diluted 1:1000 with WT-TTR (16 μM in HBSS, filter sterilized) or with HBSS only, vortexed and incubated for 18 hours at 37° C. WT-TTR (16 μM in HBSS) containing the same amount of DMSO was prepared in parallel and incubated under the same conditions.
The medium was removed from the cells and replaced immediately by the TTR/compound mixtures or HBSS previously diluted 1:1 in Opti-MEM® supplemented with 0.8 mg/mL BSA, 2 mM Hepes buffer, 4 mM L-glutamine, 200 units/mL penicillin, 200 μg/mL streptomycin and 0.1 mg/mL CaCl2. The cells were incubated 24 hours at 37° C. Cell viability was evaluated by a resazurin reduction assay.
Briefly, 10 μL of resazurin (500 μM, PBS) was added to each well and fluorescence quantified in a plate reader (Ex/Em 530/590 nm, Tecan Safire 2, Austria) after 1 hour of incubation at 37° C. Cell viability was calculated as percentage of fluorescence relative to cells treated only with vehicle (100% viability) after subtraction of blank fluorescence (wells without cells). Averages and standard errors from 2 independently performed studies, each performed at least in triplicate, were calculated using GraphPrism (San Diego, Calif., US).

[3] = target: T2, K15A-TTR (Homo sapiens, UniProt P02766, K35A); assay: RP-HPLC analysis of reaction with K15A-TTR homotetramer; format: binding
T2 construct: composed of 127-residue β-sheet-rich subunits; made in house
Source text: A strictly analogous study performed with the K15A homotetrameric TTR mutant confirmed that K15 was essential for the observed chemoselective reaction between TTR and Compounds […] (FIG. 1A, bottom trace). […] However, it is important to note that Compounds 1-3 were only slightly less chemoselective (<5% reaction with K15A).
The ability of compounds A1 and A2, auxochromic analogs of previously discussed stilbenes [Klabunde et al., Nat. Struct. Biol. 2000, 7, 312-321; Connelly et al., Curr. Opin. Struc. Biol. 2010, 20, 54-62; Johnson et al., J. Med. Chem. 2008, 51, 6348-6358; Choi et al., J. Am. Chem. Soc. 2010, 132, 1359-1370; Choi et al., Nat. Chem. Biol. 2010, 6, 133-139; and Baures et al., Bioorg. Med. Chem. 1998, 6, 1389-1401] to form a chemoselective amide bond with the K15 residue of TTR was assessed by reverse-phase-HPLC and liquid chromatography-mass spectrometry analysis. […] The binding of the covalent modifier A2 to K15A-TTR (in the absence of amide bond conjugation) was confirmed by incubating A2 with K15A-TTR in phosphate buffer (pH 7) followed by K15A immunoisolation using a Sepharose® resin-conjugated anti-TTR polyclonal antibody [Purkey et al., Proc. Natl. Acad. Sci. U.S.A. 2001, 98, 5566-5571].
Recombinant WT-TTR was expressed as described previously [Lashuel et al., Biochemistry 38:13560-13573 (1999)]. For analysis of test compounds with TTR, each compound (1.5 μL in DMSO, 1.44 mM) was added to 300 μL of WT-TTR or K15A mutant TTR (3.6 μM, 10 mM sodium phosphate, 100 mM KCl, 1 mM EDTA, pH 7.0). The samples were vortexed, and incubated for 18 hours at 25° C. Reverse phase high performance liquid chromatography (RP-HPLC) was performed on a Water 600 E multi-solvent delivery system, using a Waters 486 tunable absorbance detector, a 717 autosampler, and a ThermoHypersil Keystone Betabasic-18 column μ150 Å pore size, 3 μm particle size, and mobile phase A; 0.1% TFA in 95% H2O+5% CH3CN and mobile phase B, 0.1% TFA in 95% CH3CN+5% H2O). Linear gradients were run from 100:0 to 0:100 A:B for 27 minutes.

Cc1cc(/C=C/c2cccc(C(=O)Sc3ccccc3)c2)cc(C)c1O [Compound 2, (E)-S-phenyl 3-(4-hydroxy-3,5-dimethylstyryl)benzothioate]
% Modification of TTR subunits in Human Blood Plasma [1]: 48% (±1.3%)
inhibition of WT-TTR cytotoxicity to IMR-32 cells (in words) [2]: clearly and dose-dependently inhibits IMR-32 cytotoxicity

Cc1cc(/C=C/c2cccc(C(=O)Oc3ccc(F)cc3)c2)cc(C)c1O [Compound 4, (E)-4-fluorophenyl 3-(4-hydroxy-3,5-dimethylstyryl)benzoate]
inhibition of WT-TTR cytotoxicity to IMR-32 cells (in words) [2]: clearly and dose-dependently inhibits IMR-32 cytotoxicity
reaction with K15A-TTR (in words) [3]: no reaction could be detected

Cc1cc(/C=C/c2cc(C(=O)Sc3ccc(F)cc3)cc(N(C)C)c2)cc(C)c1O [Compound A2, (E)-S-4-fluorophenyl 3-(dimethylamino)-5-(4-hydroxy-3,5-dimethylstyryl)-benzothioate]
% Modification of TTR subunits in Human Blood Plasma [1]: 48%
reaction with K15A-TTR (in words) [3]: no conjugation
